Laboratory results from PubChem BioAssay AID328 (DTP/NCI, 2004).
Toxic doses and inconclusive results are not listed. How the source made its calls: active means survival T/C of 150% or more; inactive means T/C below 125% in these data.

Tested on: BDF1 mice, P388 leukemia ip, median survival T/C
Assay: NCI In Vivo Anticancer Drug Screen. Data for tumor model P388 Leukemia (intraperitoneal) in B6D2F1 (BDF1) mice
Settings: endpoint: median survival time, higher = longer survival
Procedure, shortened: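 Antitumour effect was judged in vivo: survival in drug-treated mice, normalised to that of vehicle-dosed controls, gives the reported T/C.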

[1] = dose: 50.0 mg/kg/injection, schedule: Q01DX009 (ip), vehicle: saline with Tween-80
[2] = dose: 100.0 mg/kg/injection, schedule: Q01DX009 (ip), vehicle: saline with Tween-80
[3] = dose: 200.0 mg/kg/injection, schedule: Q01DX009 (ip), vehicle: saline with Tween-80
[4] = dose: 100.0 mg/kg/injection, schedule: Q01DX009 (ip), vehicle: Klucel (hydroxypropylcellulose) (HPC)
[5] = dose: 200.0 mg/kg/injection, schedule: Q01DX009 (ip), vehicle: Klucel (hydroxypropylcellulose) (HPC)
[6] = dose: 400.0 mg/kg/injection, schedule: Q01DX009 (ip), vehicle: Klucel (hydroxypropylcellulose) (HPC)

Measured: T/C

O=CN(O)CC(=O)O.[Ni]
inactive: dose: 1.56 mg/kg/injection, schedule: Q04DX003 (ip), vehicle: saline 90 % of control | dose: 2.3 mg/kg/injection, schedule: Q01DX001 (ip), vehicle: saline 105 % of control | dose: 3.12 mg/kg/injection, schedule: Q01DX009 (ip), vehicle: saline 120 % of control | dose: 3.12 mg/kg/injection, schedule: Q04DX003 (ip), vehicle: saline 109 % of control | dose: 6.25 mg/kg/injection, schedule: Q01DX009 (ip), vehicle: saline 115 % of control | dose: 6.25 mg/kg/injection, schedule: Q04DX003 (ip), vehicle: saline 109 % of control | dose: 9.2 mg/kg/injection, schedule: Q01DX001 (ip), vehicle: saline 95 % of control | dose: 9.2 mg/kg/injection, schedule: Q04DX003 (ip), vehicle: saline 100 % of control | dose: 13.0 mg/kg/injection, schedule: Q01DX001 (ip), vehicle: saline 113 % of control | dose: 13.0 mg/kg/injection, schedule: Q04DX003 (ip), vehicle: saline 109 % of control | dose: 14.0 mg/kg/injection, schedule: Q04DX003 (ip), vehicle: saline 109 % of control | dose: 20.0 mg/kg/injection, schedule: Q01DX001 (ip), vehicle: saline 113 % of control | dose: 21.0 mg/kg/injection, schedule: Q04DX003 (ip), vehicle: saline 118 % of control | dose: 30.0 mg/kg/injection, schedule: Q01DX001 (ip), vehicle: saline 113 % of control | dose: 30.0 mg/kg/injection, schedule: Q04DX003 (ip), vehicle: saline 113 % of control

CN(C)c1ccc(S(=O)(=O)c2ccc3nc(N)nc(N)c3c2)cc1
inactive: [1] 97 % of control | [2] 91 % of control | [3] 88 % of control

CSc1ncnc2c1ncn2CO
active: [4] 150 % of control | [2] 154 % of control | dose: 120.0 mg/kg/injection, schedule: Q01DX009 (ip), vehicle: Klucel (hydroxypropylcellulose) (HPC) 150 % of control
inactive: dose: 30.0 mg/kg/injection, schedule: Q01DX009 (ip), vehicle: Klucel (hydroxypropylcellulose) (HPC) 110 % of control | dose: 30.0 mg/kg/injection, schedule: Q01DX009 (ip), vehicle: saline 108 % of control | dose: 150.0 mg/kg/injection, schedule: Q01DX009 (ip), vehicle: Klucel (hydroxypropylcellulose) (HPC) 90 % of control | dose: 400.0 mg/kg/injection, schedule: Q04DX003 (ip), vehicle: saline with Tween-80 95 % of control

O=C(CCN1CCCCC1)c1ccccc1
inactive: dose: 12.5 mg/kg/injection, schedule: Q01DX009 (ip), vehicle: saline 89 % of control | dose: 25.0 mg/kg/injection, schedule: Q01DX009 (ip), vehicle: saline 95 % of control | dose: 25.0 mg/kg/injection, schedule: Q04DX003 (ip), vehicle: saline 95 % of control

CC(=O)OC1OC(CSC(=N)N)C(OC(C)=O)C(OC(C)=O)C1OC(C)=O (stereo not drawn)
inactive: [1] 116 % of control | [2] 119 % of control | [3] 110 % of control

CC(C)CCNc1ncnc2[nH]ncc12
inactive: dose: 5.5 mg/kg/injection, schedule: Q01DX009 (ip), vehicle: Klucel (hydroxypropylcellulose) (HPC) 95 % of control | dose: 8.2 mg/kg/injection, schedule: Q01DX009 (ip), vehicle: Klucel (hydroxypropylcellulose) (HPC) 100 % of control | dose: 18.75 mg/kg/injection, schedule: Q04DX003 (ip), vehicle: Klucel (hydroxypropylcellulose) (HPC) 86 % of control | dose: 25.0 mg/kg/injection, schedule: Q01DX009 (ip), vehicle: Klucel (hydroxypropylcellulose) (HPC) 90 % of control | dose: 25.0 mg/kg/injection, schedule: Q01DX009 (ip), vehicle: saline with Tween-80 90 % of control | dose: 37.5 mg/kg/injection, schedule: Q04DX003 (ip), vehicle: Klucel (hydroxypropylcellulose) (HPC) 104 % of control | [1] 90 % of control | dose: 75.0 mg/kg/injection, schedule: Q04DX003 (ip), vehicle: Klucel (hydroxypropylcellulose) (HPC) 86 % of control

CC1=NN(c2ccccc2)C(=O)/C1=C\c1ccc(N(CCC#N)CCC#N)cc1
inactive: dose: 50.0 mg/kg/injection, schedule: Q01DX009 (ip), vehicle: Klucel (hydroxypropylcellulose) (HPC) 87 % of control | [4] 93 % of control | [5] 87 % of control | [6] 91 % of control

COc1cc(/C=N/NC(=O)c2ccncc2)cc(OC)c1OC
inactive: dose: 100.0 mg/kg/injection, schedule: Q04DX003 (ip), vehicle: Klucel (hydroxypropylcellulose) (HPC) 104 % of control | [5] 122 % of control | dose: 200.0 mg/kg/injection, schedule: Q04DX003 (ip), vehicle: Klucel (hydroxypropylcellulose) (HPC) 109 % of control | [6] 122 % of control | dose: 400.0 mg/kg/injection, schedule: Q04DX003 (ip), vehicle: Klucel (hydroxypropylcellulose) (HPC) 100 % of control
